Assay results as given in patent EP4201929A1, “QUINOXALINE THIOREDOXIN REDUCTASE INHIBITORS” (geneXplain GmbH, priority 2021, dated 2023).
Counter-ions that a name gives are not always drawn. Each block holds one compound with its values, some of them ahead of it.

Legend:
[1] = system: HCT116-Cas9; experiment: Growth suppression assay (resazurin); format: cell-based; details: 48 hours of incubation
Protocol: (§1) Breast, colon, ovarian, cervical, liver and lung carcinoma cell lines were grown in DMEM supplemented with 10% FBS, and antibiotics were cultured at 37 °C and 5% CO2. […] To obtain an oxygen concentration of 0.05%, the cells were flushed with the premixed gas continuously throughout the experiment.
(§2) Cells were grown in 96-well plates at a density of 3000 cells per well with or without doxycycline and treated with compounds. After 48 hours of incubation the proliferative cell reagent resazurin (Thermo Fisher Scientific) was added to the cells. The degree of resazurin reduction, which reflects cell viability, was measured by microplate reader by monitoring the absorbance at 570 nm and 600 nm, according to the manufacturer.

[2] = system: MCF7-Cas9; experiment: Growth suppression assay (resazurin); format: cell-based; details: 48 hours of incubation
Protocol: as §1, §2

[3] = Solubility (solvent); format: physicochemical; details: solvent named in the table
[4] = target: TrxRl (Homo sapiens, UniProt Q16881); details: cell extracts and crystal structure of tetrameric TrxRl; earlier publication of the applicants; cited from earlier work
TrxRl, sequence (Q16881 151-649): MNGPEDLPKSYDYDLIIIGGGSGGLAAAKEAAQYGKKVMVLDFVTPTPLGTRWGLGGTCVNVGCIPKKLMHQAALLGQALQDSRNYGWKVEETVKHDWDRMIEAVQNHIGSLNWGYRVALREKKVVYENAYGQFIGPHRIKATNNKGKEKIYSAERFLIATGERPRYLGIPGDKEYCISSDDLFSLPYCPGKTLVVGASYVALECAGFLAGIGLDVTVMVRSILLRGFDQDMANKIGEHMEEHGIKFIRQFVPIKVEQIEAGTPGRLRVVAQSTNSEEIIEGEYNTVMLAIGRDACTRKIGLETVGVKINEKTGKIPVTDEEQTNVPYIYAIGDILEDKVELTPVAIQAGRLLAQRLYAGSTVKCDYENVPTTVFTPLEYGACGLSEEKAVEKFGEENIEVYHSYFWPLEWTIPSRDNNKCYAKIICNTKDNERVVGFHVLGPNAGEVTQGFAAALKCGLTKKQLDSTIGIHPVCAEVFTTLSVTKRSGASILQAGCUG

SMILES: N#Cc1c(-c2ccncc2)[n+]([O-])c2cc(N3CCOCC3)c(F)cc2[n+]1[O-] [1a*MsOH, 7-Fluoro-6-(morpholin-4-yl)-3-(pyridin-4-yl)quinoxaline-2-carbonitrile-1,4-dioxide methanesulfonate]
IC50 ([1]; methanesulfonate): 1.2 µM
IC50 ([2]; methanesulfonate): 2.4 µM

SMILES: N#Cc1c(-c2ccncc2)[n+]([O-])c2cc(F)c(N3CCOCC3)cc2[n+]1[O-] [1b*HCl, 6-Fluoro-7-(morpholin-4-yl)-3-(pyridin-4-yl)quinoxaline-2-carbonitrile-1,4-dioxide hydrochloride]
IC50 ([1]; hydrochloride): 3.2 µM
IC50 ([2]; hydrochloride): 3.8 µM

SMILES: N#Cc1c(-c2ccncc2)[n+]([O-])c2cc(F)c(N3CCOCC3)cc2[n+]1[O-] [1b*MsOH, 6-Fluoro-7-(morpholin-4-yl)-3-(pyridin-4-yl)quinoxaline-2-carbonitrile-1,4-dioxide methanesulfonate]
IC50 ([2]; methanesulfonate): 4.2 µM

SMILES: N#Cc1c(-c2cccnc2)[n+]([O-])c2cc(N3CCOCC3)c(F)cc2[n+]1[O-] [1c*HCl, 7-Fluoro-6-(morpholin-4-yl)-3-(pyridin-3-yl)quinoxaline-2-carbonitrile-1,4-dioxide hydrochloride]
IC50 ([1]; hydrochloride): 10.9 µM
IC50 ([2]; 48 h): > 10 µM

SMILES: N#Cc1c(-c2cccnc2)[n+]([O-])c2cc(F)c(N3CCOCC3)cc2[n+]1[O-] [Compound 1d, 6-Fluoro-7-(morpholin-4-yl)-3-(pyridin-3-yl)quinoxaline-2-carbonitrile-1,4-dioxide]
Solubility [3]: Warm DMSO
IC50 [1]: 4.1 µM

SMILES: OCc1ccc(-c2ccc(-c3ccc(CO)s3)o2)s1 [RITA]
covalent link between TrxRl subunits [4]: induced the formation of a covalent link between two oxidized Trp114 residues

More lines, now with the values ahead:

Solubility [3]: Warm DMSO
IC50 [1]: 3.5 µM
IC50 [2]: 6.9 µM
SMILES: N#Cc1c(-c2ccncc2)[n+]([O-])c2cc(N3CCOCC3)c(F)cc2[n+]1[O-] [Compound 1a, 7-Fluoro-6-(morpholin-4-yl)-3-(pyridin-4-yl)quinoxaline-2-carbonitrile 1,4-dioxide]

Solubility [3]: Warm DMSO
IC50 ([1]; 48 h): 2.8 µM
IC50 ([2]; 48 h): 4.1 µM
SMILES: N#Cc1c(-c2ccncc2)[n+]([O-])c2cc(F)c(N3CCOCC3)cc2[n+]1[O-] [Compound 1b, 6-Fluoro-7-(morpholin-4-yl)-3-(pyridin-4-yl)quinoxaline-2-carbonitrile-1,4-dioxide]

Solubility [3]: Warm DMSO
IC50 [1]: 3.3 µM
SMILES: N#Cc1c(-c2cccnc2)[n+]([O-])c2cc(N3CCOCC3)c(F)cc2[n+]1[O-] [Compound 1c, 7-Fluoro-6-(morpholin-4-yl)-3-(pyridin-3-yl)quinoxaline-2-carbonitrile-1,4-dioxide]

Solubility [3]: Warm DMSO
IC50 ([1]; 48 h): 2.2 µM
IC50 ([2]; 48 h): 3.8 µM
SMILES: N#Cc1c(-c2cccnc2)[n+]([O-])c2cc(F)c(N3CCCC3)cc2[n+]1[O-] [Compound 1f, 6-Fluoro-7-(pyrrolidin-1-yl)-3-(pyridin-3-yl)quinoxaline-2-carbonitrile-1,4-dioxide]

Solubility [3]: Warm DMSO
IC50 ([1]; 48 h): 2.8 µM
IC50 ([2]; 48 h): 4.1 µM
SMILES: N#Cc1c(-c2cccnc2)[n+]([O-])c2cc(F)c(N3CCCCC3)cc2[n+]1[O-] [Compound 1g, 6-Fluoro-7-(piperidin-1-yl)-3-(pyridin-3-yl)quinoxaline-2-carbonitrile-1,4-dioxide]
